Experimental findings from patent EP4335840A1, “NEW CONTRAST AGENTS FOR USE IN DIAGNOSTIC IMAGING” (priority 2022, dated 2024) are described below.

Where only a bound is given, the exact number is not on record here.

The nature of series [1]: Water solubility in aqueous buffer. Type of series: physicochemical. The conditions noted are these: aqueous buffer 10 mM Tris-HCl, pH 7.4, 20°C; Gd by ICP-MS. The method, then:
The exploratory water solubility of the compounds is determined at room temperature (20°C) in 0.5 mL buffer solution (10 mM Tris-HCI, pH 7.4) in the microcentrifuge tubes (Eppendorf, 2.0 mL safe-lock caps). The solid compounds were added stepwise to the buffer solution. More substance is added once all the suspended material is dissolved until an equilibrium between undissolved and dissolved substance is reached. The suspension was mixed using a shaker (Heidolph Reax 2000) and treated 5 min in an ultrasound bath (Bandelin, Sonorex Super RK255H). The Gadolinium concentration of the test substance in the clear solution is measured by ICP-MS. Table 1: Solubilities of compounds in aqueous buffer at 20°C (pH 7.4).

Series [2] is described as follows: No-observed-adverse-effect level (NOAEL), intravenous bolus. To be noted: mice, intravenous bolus via tail vein, dose levels up to 2.5 mmol Gd/kg bw.
The target in the next series is T1, OATP1B1 (Homo sapiens, UniProt Q9Y6L6).
T1 sequence (Q9Y6L6 1-691): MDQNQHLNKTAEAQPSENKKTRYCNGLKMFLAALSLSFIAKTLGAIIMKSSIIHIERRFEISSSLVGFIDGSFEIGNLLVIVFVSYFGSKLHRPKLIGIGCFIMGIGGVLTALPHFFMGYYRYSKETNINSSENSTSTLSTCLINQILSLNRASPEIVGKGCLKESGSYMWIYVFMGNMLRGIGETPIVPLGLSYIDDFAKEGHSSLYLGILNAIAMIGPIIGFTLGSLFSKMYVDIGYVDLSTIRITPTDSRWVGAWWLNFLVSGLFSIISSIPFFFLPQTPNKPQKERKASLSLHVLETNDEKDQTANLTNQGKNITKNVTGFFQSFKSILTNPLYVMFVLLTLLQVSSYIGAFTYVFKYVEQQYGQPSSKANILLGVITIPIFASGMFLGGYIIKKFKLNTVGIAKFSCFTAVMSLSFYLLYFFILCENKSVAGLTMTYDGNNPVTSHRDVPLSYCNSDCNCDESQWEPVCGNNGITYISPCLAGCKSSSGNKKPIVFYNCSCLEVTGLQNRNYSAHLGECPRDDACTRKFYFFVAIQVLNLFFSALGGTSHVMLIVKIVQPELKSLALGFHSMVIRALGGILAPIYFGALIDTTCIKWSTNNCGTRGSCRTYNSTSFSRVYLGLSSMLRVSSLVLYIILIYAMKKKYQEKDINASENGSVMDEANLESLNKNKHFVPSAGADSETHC
Description: Uptake into stable transfected OATP1B1 HEK 293 cells. Type of series: cell-based. The conditions noted are these: OATP1B1-HEK 293 cell uptake with Rifampicine.

The nature of series [3]: Relaxivity measurements at 1.41 T in water and human plasma. Format: physicochemical. To be noted: 37°C, normalized to Gd. On the procedure: Relaxivity measurements at 1.41 T were performed using a MiniSpec mq60 spectrometer (Bruker Analytik, Karlsruhe, Germany) operating at a resonance frequency of 60 MHz and a temperature of 37°C. The T1 relaxation times were determined using the standard inversion recovery (IR) method with a fixed relaxation delay of at least 5 × T1. The variable inversion time (TI) was calculated automatically by the standard software of the MiniSpec mq60 (8 steps). The T2 measurements were performed by using a Carr-Purcell-Meiboom-Gill (CPMG) pulse sequence, applying a relaxation delay of at least 5 × T1.
Each relaxivity measurement was performed using three different Gd concentrations (3 concentrations between 0.05 and 2 mM). The T1 and T2 relaxation times of the example compounds 1 to 10 were measured in different media for example in water and human plasma. Human plasma preparation: For each experiment fresh blood was taken from a volunteer using 10 mL citrate-tubes (Sarstedt S-Monovette 02.1067.001, 10 mL, Citrate). The 10 mL citrate-tubes were carefully inverted 10 times to mix blood and anticoagulant and centrifuged for 15min at 1811 g at RT (Eppendorf, Centrifuge 5810R).
The relaxivities ri (where i=1, 2) were calculated based on the measured relaxation rates Ri in water and plasma: ri = (Ri−Ri(0))/CGd [formula] where Ri(0) represent the relaxation rate of the respective solvent and CGd the concentration of the compound normalized to the Gadolinium. The Gadolinium concentrations of the investigated solutions were verified by Inductively Coupled Plasma Mass Spectrometry (ICP-MS Agilent 7500a, Waldbronn, Germany). Table 3: Relaxivities of investigated compounds in water and human plasma at 1.41 T and relaxivities of Reference compounds 1-3 (RC1-RC3) at 1.5 T in water and bovine plasma. All values are measured at 37°C and normalized to Gd and given in L mmol-1 s-1.

For series [4], the system named is freshly isolated rat hepatocytes. Description: Uptake into freshly isolated rat hepatocytes. The conditions noted are these: rat hepatocyte uptake with OATP1B1/1B3 inhibitor Rifampicine, test item and inhibitor each 100 µM.
Description: The rat hepatocytes were incubated (2.5 ·10^5 cells/well) for 2.5 to 4h in collagen coated 24-well plates (Fa. Beckton Dickinson Biocoat, cell environments, Collagen I Cellware) in Williams E-medium (Fa. Sigma W1878) in an incubator (37°C, 5% CO2 and 95% oxygen). After incubation the adherent hepatocytes were washed once with 37°C Hepes carbonate transport buffer (500 µL/well). The test items and RC1 were prepared from stock solutions (180 to 500 mM concentration) in Hepes carbonate transport buffer at pH 7.4 to reach a final concentration of 100 µmοl Gd/L. The specific uptake of the test item or RC1 into rat hepatocytes via OATP1 B1 and OATP1 B3 was challenged using a known OATP1B1/1B3 inhibitor (Rifampicine, Fa. Sigma R3501, test item and inhibitor 1:1 each 100 µM final concentration). The prepared rat hepatocyte plates were incubated with test solutions (500 µL/well) at 37°C for 10 min using a thermoshaker (Fa. Grant Bio, PHMP). Triplicates were performed for each test item. After incubating the cells were washed once with cold PBS buffer (Fa. Gibco, Dulbeccos PBS (+)). After washing the intact hepatocytes were lysed by addition of 500 µL cold 0.01 % Triton-X 100 in Millipore water for 1h. […] After 1h 500 µL of 10 nM Terbium ICP-MS standard was added in 2% nitric acid and 0.01% Triton 100 before the Gadolinium concentrations in the lysate were measured using ICP-MS (Agilent 8900, singleQuad, integr. Time 0.3 s, no gas, 5 replicates, Gd m/z 157, Tb m/z 159). As a reference standard RC1 is used in the same well plate. The hepatocyte uptake of the test compound is calculated relative to RC1 (resulting in the unit % of RC1).
Another series has as its target T2, OATP1B3 (Homo sapiens, UniProt Q9NPD5).
T2 sequence (Q9NPD5 1-702): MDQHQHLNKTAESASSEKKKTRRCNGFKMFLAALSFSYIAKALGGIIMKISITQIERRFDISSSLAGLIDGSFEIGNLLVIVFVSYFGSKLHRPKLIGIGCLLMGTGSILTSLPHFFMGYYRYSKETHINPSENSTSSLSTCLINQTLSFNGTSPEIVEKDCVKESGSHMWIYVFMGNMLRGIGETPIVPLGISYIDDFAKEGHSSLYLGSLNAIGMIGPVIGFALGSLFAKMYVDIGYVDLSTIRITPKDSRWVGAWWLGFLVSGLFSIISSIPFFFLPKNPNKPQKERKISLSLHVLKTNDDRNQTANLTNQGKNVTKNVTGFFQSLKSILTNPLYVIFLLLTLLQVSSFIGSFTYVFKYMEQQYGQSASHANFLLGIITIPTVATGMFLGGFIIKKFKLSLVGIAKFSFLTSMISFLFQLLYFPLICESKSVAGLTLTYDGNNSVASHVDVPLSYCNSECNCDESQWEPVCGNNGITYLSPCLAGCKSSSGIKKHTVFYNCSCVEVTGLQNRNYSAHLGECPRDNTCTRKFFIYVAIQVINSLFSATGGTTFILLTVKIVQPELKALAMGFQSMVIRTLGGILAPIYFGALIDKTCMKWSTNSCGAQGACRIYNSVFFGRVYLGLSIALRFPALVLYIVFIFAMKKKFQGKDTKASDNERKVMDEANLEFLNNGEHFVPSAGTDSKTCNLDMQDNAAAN
Description: Uptake into stable transfected OATP1B3 HEK 293 cells. Format: cell-based. The conditions noted are these: OATP1B3-HEK 293 cell uptake with Rifampicine.

The nature of series [5]: Complex stability (transmetallation with Zn2+, proton relaxometry). To be noted: 72 hours, 2.5 mM Zn2+, 26 mM phosphate buffer, 37°C, pH 7.4; 1.41 T. Format: physicochemical. On the procedure:
The used method is described elsewhere (Laurent S et al., Stability of MRI paramagnetic contrast media: a proton relaxometric protocol for transmetallation assessment. Invest Radiol. 2001 Feb;36(2):115-22). In brief: A solution containing 2.5 mmol/L of test compound and 2.5 mmol/L ZnCl2 in 26 mM phosphate buffer (KH2PO4 Merck; 1.09439.1000, #HC748513, pH 7,00), was incubated at 37°C over a period of at least 3 days. If test compounds are instable under these conditions, transmetallation during this test would lead to the formation of the Zn^2+ complex of the test item, while Gd^3+ is released and precipitated as highly insoluble GdPO4.
After 3d of incubation T1 relaxation time was observed. […] Table 2: Transmetallation stability [%] of paramagnetic contrast agents over 72 hours (2.5 mM Zn2+, 26 mM phosphate buffer, 37°C, pH 7.4).

On to `CCOCCOc1ccc(C[C@H]2CN(CC(=O)[O-])CCN(CC(=O)[O-])CCN(CC(=O)O)CCN2CC(=O)[O-])cc1.[Gd+3]` [Example 4], for which the Solubility in series [1] was more than 738 mM. The NOAEL in series [2] is recorded as 2.50 mmol Gd/kg bw. The “Inhibition Rifampicine” value on OATP1B1 is listed as 29 % inhibition; in series [4] it was 94 % inhibition; on OATP1B3, 97 % inhibition. This compound yielded a r1 human plasma in series [3] of 6.6 L/mmol/s. In series [3], the r1 water is 4.8 L/mmol/s.
Take `CCOc1ccc(CC2CN(CC(=O)[O-])CCN(CC(=O)[O-])CCN(CC(=O)O)CCN2CC(=O)[O-])cc1.[Gd+3]` (stereo not drawn) [Example 7, Gadolinium-2,2',2"-[10-(carboxymethyl)-2-(4-ethoxybenzyl)-1,4,7,10-tetraazacyclododecane-1,4,7-triyl]triacetate]: the Solubility in series [1] was more than 403 mM. In series [2], this compound returned an NOAEL of 1.50 mmol Gd/kg bw. The “Stability (transmetallation stability, T1 relaxation rates R1n/R10)” value in series [5] turned out to be 98%. The “Inhibition Rifampicine” value at OATP1B1 is 78 % inhibition; in series [4] it was 96 % inhibition; on OATP1B3 it was 95 % inhibition. In series [3], this compound came in with a r1 human plasma of 6.2 L/mmol/s. The compound also gave a r1 water in series [3] of 4.5 L/mmol/s.
